Common to all, as to type: biochemical
In assay [1] the target is T1, hPI3Kγ (PIK3CG) (Homo sapiens, UniProt P48736).
T1 construct: purchased ProQinase, Germany 1163‐0000‐1
In words: lipid kinase assay (ADP-Glo), PI3Kγ. A general note: ADP-Glo turns the ADP formed in a reaction into a luminescent signal.

Assay [2] deals with T2, hPI3Kδ (PIK3CD/PIK3R1) (Homo sapiens, UniProt O00329).
T2 construct: purchased ProQinase, Germany 1162–1165‐1
In words: lipid kinase assay (ADP-Glo), PI3Kδ.

For assay [3], the target named is T3, hVps34 (PIK3C3) (Homo sapiens, UniProt Q8NEB9).
T3 construct: purchased ProQinase, Germany 1160‐0000‐1
T3 sequence (Q8NEB9 whole entry): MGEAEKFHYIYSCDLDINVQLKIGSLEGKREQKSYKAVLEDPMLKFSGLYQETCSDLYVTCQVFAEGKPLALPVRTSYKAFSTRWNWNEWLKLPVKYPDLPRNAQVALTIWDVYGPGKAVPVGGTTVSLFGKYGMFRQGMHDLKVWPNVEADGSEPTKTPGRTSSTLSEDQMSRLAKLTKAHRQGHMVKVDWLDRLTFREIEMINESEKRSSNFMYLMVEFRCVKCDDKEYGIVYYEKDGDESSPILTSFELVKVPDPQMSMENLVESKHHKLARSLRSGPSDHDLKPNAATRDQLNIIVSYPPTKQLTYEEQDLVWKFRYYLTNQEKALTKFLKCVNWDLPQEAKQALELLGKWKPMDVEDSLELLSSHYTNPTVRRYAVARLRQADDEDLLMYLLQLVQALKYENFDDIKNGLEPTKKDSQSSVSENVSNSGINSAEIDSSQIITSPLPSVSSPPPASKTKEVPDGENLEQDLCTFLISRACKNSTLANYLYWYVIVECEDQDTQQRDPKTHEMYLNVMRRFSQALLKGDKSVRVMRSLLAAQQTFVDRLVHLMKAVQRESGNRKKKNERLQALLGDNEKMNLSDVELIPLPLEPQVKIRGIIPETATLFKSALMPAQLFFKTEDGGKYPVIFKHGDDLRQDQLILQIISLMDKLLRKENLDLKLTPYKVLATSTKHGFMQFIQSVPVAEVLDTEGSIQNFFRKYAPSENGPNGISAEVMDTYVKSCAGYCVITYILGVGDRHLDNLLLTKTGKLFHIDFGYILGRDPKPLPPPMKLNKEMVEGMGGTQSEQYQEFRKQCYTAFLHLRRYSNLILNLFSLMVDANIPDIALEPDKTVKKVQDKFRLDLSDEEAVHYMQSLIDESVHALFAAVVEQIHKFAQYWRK
In words: lipid kinase assay (ADP-Glo), PI3K-C3. The following applies: Table 2; mean of at least three determinations, 95 % confidence intervals; read-out: IC50 PI3Kc3. On the procedure: In vitro selection, lipid kinase assay: To determine the inhibitory activity of the new molecular entities on PI3K enzyme, a lipid kinase assay was performed: recombinant proteins (30 ng), human PI3Kα (PIK3CA/PIK3R1, #1161‐1165‐1 ProQinase–Germany), hPI3Kβ (PIK3CB wt/PIK3R1, #1168‐1165‐1 ProQinase, Germany), hPI3Kγ (PIK3CG, #1163‐0000‐1 ProQinase, Germany), hPI3Kδ (PIK3CD/PIK3R1, #1162–1165‐1 ProQinase, Germany), hPI3K‐C2α (PIK3C2A, #14‐906 Merck Millipore_Merck KGaA, Germany), hPI3K‐C2β (PIK3C2B, #14‐907 Merck Millipore_Merck KGaA, Germany), hPI3K‐c2γ (PIK3C2G, #1207‐0000‐1 ProQinase, Germany), and hVps34 (PIK3C3, #1160‐0000‐1 ProQinase, Germany), were incubated in kinase buffer {12.5 μL; 20 mM Tris‐HCl pH 7.5, 10 mM MgCl2, 10 μM ATP, 0.05 mg mL^−1 BSA, 0.5 mM EDTA, 5 mM HEPES pH 7.5, for PI3Kα,PI3Kβ, PI3Kγ, PI3Kδ, PI3KC‐2α, and PI3KC‐2γ; 15 mM MnCl2, 5 mM EGTA, 100 μM ATP, 50 mM HEPES pH 7.5, 100 mM NaCl, and 0.03 % CHAPS for PI3K‐C2β and VPS34 {BSA=bovine serum albumin; EDTA=ethylenediaminetetraacetic acid; HEPES=4‐(2‐hydroxyethyl)‐1‐piperazineethanesulfonic acid; EGTA=ethylene glycol‐bis(2‐aminoethylether)‐N,N,N′,N′‐tetraacetic acid; CHAPS=3‐[(3‐cholamidopropyl)dimethylammonio]‐1‐propanesulfonate}. In the reaction, the ATP concentration used for different PI3Ks was defined on the basis of the Michaelis–Menten kinetics of each enzyme, provided by the supplier. […]

The target in assay [4] is T4, PI3Kδ (Homo sapiens, UniProt O00329).
T4 construct: purchased ProQinase, Germany 1162–1165‐1
T4 sequence (O00329 whole entry): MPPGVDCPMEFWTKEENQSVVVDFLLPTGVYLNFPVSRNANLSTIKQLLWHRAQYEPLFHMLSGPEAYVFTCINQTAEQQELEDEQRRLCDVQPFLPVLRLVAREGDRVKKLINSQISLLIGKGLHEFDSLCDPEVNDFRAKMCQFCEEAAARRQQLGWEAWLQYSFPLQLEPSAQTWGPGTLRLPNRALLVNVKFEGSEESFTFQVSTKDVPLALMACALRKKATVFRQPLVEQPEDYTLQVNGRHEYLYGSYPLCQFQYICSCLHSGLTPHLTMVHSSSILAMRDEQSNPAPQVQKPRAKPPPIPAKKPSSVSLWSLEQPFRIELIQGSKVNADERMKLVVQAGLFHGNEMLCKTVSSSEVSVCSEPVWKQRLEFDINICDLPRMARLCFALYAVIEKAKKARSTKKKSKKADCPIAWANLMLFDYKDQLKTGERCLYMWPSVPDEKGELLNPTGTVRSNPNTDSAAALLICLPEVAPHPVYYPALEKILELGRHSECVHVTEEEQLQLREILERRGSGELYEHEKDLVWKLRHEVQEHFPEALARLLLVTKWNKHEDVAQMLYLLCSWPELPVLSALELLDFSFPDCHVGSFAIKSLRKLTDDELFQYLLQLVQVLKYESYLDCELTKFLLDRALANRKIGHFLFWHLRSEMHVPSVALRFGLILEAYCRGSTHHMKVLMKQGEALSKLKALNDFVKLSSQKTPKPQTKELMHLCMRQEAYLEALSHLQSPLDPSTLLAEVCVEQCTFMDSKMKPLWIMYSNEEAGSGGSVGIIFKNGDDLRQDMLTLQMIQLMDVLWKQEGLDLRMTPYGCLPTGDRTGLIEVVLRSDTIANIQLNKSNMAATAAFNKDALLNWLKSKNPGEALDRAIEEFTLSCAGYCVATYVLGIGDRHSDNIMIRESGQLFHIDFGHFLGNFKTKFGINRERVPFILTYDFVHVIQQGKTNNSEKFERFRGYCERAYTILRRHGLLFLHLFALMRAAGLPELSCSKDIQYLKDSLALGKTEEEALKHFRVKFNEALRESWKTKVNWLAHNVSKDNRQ
T4 sequence (P27986 whole entry partner): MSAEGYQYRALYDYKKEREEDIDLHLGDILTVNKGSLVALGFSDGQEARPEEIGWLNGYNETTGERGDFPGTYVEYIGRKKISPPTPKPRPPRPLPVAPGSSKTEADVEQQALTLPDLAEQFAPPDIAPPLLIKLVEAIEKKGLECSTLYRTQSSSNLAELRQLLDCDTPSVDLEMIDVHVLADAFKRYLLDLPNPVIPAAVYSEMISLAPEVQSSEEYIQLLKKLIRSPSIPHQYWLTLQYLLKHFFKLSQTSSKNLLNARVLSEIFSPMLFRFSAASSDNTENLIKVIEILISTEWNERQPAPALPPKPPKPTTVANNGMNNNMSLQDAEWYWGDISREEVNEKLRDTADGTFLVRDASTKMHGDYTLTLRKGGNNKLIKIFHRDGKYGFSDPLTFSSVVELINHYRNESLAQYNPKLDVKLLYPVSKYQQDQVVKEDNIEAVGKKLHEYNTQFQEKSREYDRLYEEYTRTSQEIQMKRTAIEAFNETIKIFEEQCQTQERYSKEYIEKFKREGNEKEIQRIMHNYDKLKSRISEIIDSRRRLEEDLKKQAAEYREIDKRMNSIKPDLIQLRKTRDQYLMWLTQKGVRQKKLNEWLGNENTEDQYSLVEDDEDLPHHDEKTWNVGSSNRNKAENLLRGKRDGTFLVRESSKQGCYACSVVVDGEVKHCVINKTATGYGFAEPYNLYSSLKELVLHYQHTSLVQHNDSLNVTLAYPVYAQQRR
In words: Lineweaver–Burk plot, inhibition mode against PI3Kδ. The following applies: ATP 5-100 μM; 37 at 5, 10, 20 nM. On the procedure: Figure 6 Inhibition mode of 37 against PI3Kδ isoform. Lineweaver–Burk plot, 1/v versus 1/[ATP]. The inhibition assay was performed by using varying concentrations of ATP (5, 10, 25, 50, and 100 μM) and fixed concentrations of PI3Kδ recombinant protein (2.4 μg mL^−1) and lipids (1 mg mL^−1 PI/PS lipid micelles mixture) in the presence or absence of different concentrations of 37 (5, 10, and 20 nM).
Lineweaver–Burk plot: The linear phase of the kinetic reaction was defined with 2.4 μg mL^−1 of PI3Kδ in a 20 min reaction time. In the presence of increasing concentrations of 37 (5, 10 and 20 nM), the PI3K lipid kinase activity (for the assay method see “In vitro selection, lipid kinase assay” in the Experimental Section) was assayed at various concentrations of ATP (5, 10, 25, 50, and 100 μM) and in the presence of 0.5 mg mL^−1 lipid micelles (1:1 phosphatidylinositol/phosphatidylserine). A Lineweaver–Burk plot was obtained by plotting 1/v, for which v represents pmol min^−1 of ADP produced in the reaction measured with the ADP‐Glo Kinase Assay kit from Promega (#V9102) versus 1/[ATP] (the inverse of the ATP concentration). The minus‐enzyme control was obtained by incubating phosphatidylinositol in the absence of PI3Kδ.

The mark [5] stands for this setting: Table 2, mean of at least three determinations, 95 % confidence intervals.

This note sets out measurements from article PMC5697638, “Identification of a Potent Phosphoinositide 3‐Kinase Pan Inhibitor Displaying a Strategic Carboxylic Acid Group and Development of Its Prodrugs” (Chemmedchem, 2017).

T2 sequence (O00329 whole entry): as the sequence (O00329 whole entry) above
T2 sequence (P27986 whole entry partner): as the sequence (P27986 whole entry partner) above
T1 sequence (P48736 whole entry): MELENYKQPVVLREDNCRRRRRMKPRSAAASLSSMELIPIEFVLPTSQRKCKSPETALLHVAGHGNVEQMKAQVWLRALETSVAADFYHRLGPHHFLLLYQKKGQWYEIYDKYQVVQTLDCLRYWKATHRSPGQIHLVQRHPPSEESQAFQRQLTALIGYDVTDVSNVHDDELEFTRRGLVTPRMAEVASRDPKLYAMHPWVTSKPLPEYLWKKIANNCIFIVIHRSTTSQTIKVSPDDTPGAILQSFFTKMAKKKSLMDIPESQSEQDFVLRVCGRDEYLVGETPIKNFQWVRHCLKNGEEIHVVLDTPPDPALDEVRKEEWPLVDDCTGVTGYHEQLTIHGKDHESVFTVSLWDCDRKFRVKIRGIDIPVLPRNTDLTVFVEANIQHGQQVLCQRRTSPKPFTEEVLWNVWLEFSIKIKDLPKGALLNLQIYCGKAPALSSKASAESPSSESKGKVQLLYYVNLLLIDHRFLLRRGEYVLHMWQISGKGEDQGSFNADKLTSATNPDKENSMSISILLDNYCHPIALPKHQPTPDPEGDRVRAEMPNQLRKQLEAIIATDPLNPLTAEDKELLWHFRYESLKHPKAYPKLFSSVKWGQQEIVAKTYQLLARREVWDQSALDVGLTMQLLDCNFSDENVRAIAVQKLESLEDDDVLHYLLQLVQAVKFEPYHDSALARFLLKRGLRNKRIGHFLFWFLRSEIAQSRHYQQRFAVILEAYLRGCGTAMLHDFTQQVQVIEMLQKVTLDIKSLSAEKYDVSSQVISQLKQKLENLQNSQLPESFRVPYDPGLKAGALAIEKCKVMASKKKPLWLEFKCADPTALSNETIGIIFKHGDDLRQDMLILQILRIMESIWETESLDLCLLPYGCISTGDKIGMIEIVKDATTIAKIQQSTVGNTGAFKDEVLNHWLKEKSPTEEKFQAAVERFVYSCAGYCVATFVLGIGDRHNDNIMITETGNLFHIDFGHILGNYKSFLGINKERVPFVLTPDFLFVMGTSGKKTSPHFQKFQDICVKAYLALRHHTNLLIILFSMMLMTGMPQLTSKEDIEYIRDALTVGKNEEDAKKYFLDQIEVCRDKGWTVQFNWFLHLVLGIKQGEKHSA

In general, IC50 refers to the concentration that gives 50% inhibition. As to `O=C(O)c1cccc(Cn2cc(-c3cccc4c(=O)cc(N5CCOCC5)[nH]c34)nn2)c1` [Compound 37, 3‐{[4‐(2‐Morpholino‐4‐oxo‐1,4‐dihydroquinolin‐8‐yl)‐1H‐1,2,3‐triazol‐1‐yl]methyl}benzoic acid], the values for the IC50 in assay [1] (setting [5]), in assay [2] (setting [5]) and in assay [3] were 186 ± 43 nM, 19 ± 4 nM and 590 ± 200 nM, respectively. The inhibition at 1 µM in assay [1] (determined at 1 μM, at least triplicate, read-out: Inhibitory activity, PI3K isoform γ) was over 50%; in assay [2] (determined at 1 μM, at least triplicate, read-out: Inhibitory activity, PI3K isoform δ) it was over 50%. Besides, the “inhibition mode against PI3Kδ” value in assay [4] is listed as “ATP‐competitive inhibitor”.
